Measured values taken from ChEMBL document CHEMBL1909294, “Translating clinical findings into knowledge in drug safety evaluation--drug induced liver injury prediction system (DILIps)” (PLoS Comput Biol, 2011).

Columns and labels:
Hepatotoxicity [1] = tested on: Hepatotoxicity;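 for HepSE bilirubinemia: bilirubinemia hepatic side effect score drawn from the DILIps training data, a prediction system for drug-induced liver injury; call rule not given here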;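 for HepSE cholecystitis: Cholecystitis-related hepatic side effect score drawn from the DILIps (drug-induced liver injury prediction) training data set; call rule not given here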;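 for HepSE cholelithiasis: hepatic side effect score for cholelithiasis, drawn from the DILIps training data for predicting drug-induced liver injury; call rule not given here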;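 for HepSE cirrhosis: cirrhosis hepatic side effect score taken from the DILIps (drug-induced liver injury prediction) training set; call rule not given here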;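 for HepSE elevated liver function tests: hepatic side effect score for raised liver function tests, as recorded in the DILIps training set used for predicting drug-induced liver injury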; for HepSE hepatic failure: call rule not given here;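 for HepSE hepatomegaly: hepatic side effect score for hepatomegaly, taken from the training set of the DILIps drug-induced liver injury prediction system; call rule not given here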
Hepatotoxicity [2] = tested on: Hepatotoxicity; remark: listed apart in the source;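 for HepSE bilirubinemia: bilirubinemia hepatic side effect score drawn from the DILIps training data, a prediction system for drug-induced liver injury; call rule not given here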;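 for HepSE cholecystitis: Cholecystitis-related hepatic side effect score drawn from the DILIps (drug-induced liver injury prediction) training data set; call rule not given here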;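 for HepSE cholelithiasis: hepatic side effect score for cholelithiasis, drawn from the DILIps training data for predicting drug-induced liver injury; call rule not given here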;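 for HepSE cirrhosis: cirrhosis hepatic side effect score taken from the DILIps (drug-induced liver injury prediction) training set; call rule not given here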;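 for HepSE elevated liver function tests: hepatic side effect score for raised liver function tests, as recorded in the DILIps training set used for predicting drug-induced liver injury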; for HepSE hepatic failure: call rule not given here
Hepatotoxicity [3] = tested on: Hepatotoxicity; remark: listed apart in the source;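 for HepSE bilirubinemia: bilirubinemia hepatic side effect score drawn from the DILIps training data, a prediction system for drug-induced liver injury; call rule not given here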;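 for HepSE cholecystitis: Cholecystitis-related hepatic side effect score drawn from the DILIps (drug-induced liver injury prediction) training data set; call rule not given here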;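 for HepSE cholelithiasis: hepatic side effect score for cholelithiasis, drawn from the DILIps training data for predicting drug-induced liver injury; call rule not given here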;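 for HepSE cirrhosis: cirrhosis hepatic side effect score taken from the DILIps (drug-induced liver injury prediction) training set; call rule not given here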;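 for HepSE elevated liver function tests: hepatic side effect score for raised liver function tests, as recorded in the DILIps training set used for predicting drug-induced liver injury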; for HepSE hepatic failure: call rule not given here
Hepatotoxicity [4] = tested on: Hepatotoxicity; remark: listed apart in the source;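 for HepSE bilirubinemia: bilirubinemia hepatic side effect score drawn from the DILIps training data, a prediction system for drug-induced liver injury; call rule not given here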;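 for HepSE cholecystitis: Cholecystitis-related hepatic side effect score drawn from the DILIps (drug-induced liver injury prediction) training data set; call rule not given here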;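 for HepSE cholelithiasis: hepatic side effect score for cholelithiasis, drawn from the DILIps training data for predicting drug-induced liver injury; call rule not given here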;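 for HepSE cirrhosis: cirrhosis hepatic side effect score taken from the DILIps (drug-induced liver injury prediction) training set; call rule not given here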;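 for HepSE elevated liver function tests: hepatic side effect score for raised liver function tests, as recorded in the DILIps training set used for predicting drug-induced liver injury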; for HepSE hepatic failure: call rule not given here
Hepatotoxicity [5] = tested on: Hepatotoxicity; remark: listed apart in the source; for HepSE hepatic failure: call rule not given here
Hepatotoxicity [6] = tested on: Hepatotoxicity; remark: listed apart in the source; for HepSE hepatic failure: call rule not given here
Hepatotoxicity [7] = tested on: Hepatotoxicity; remark: listed apart in the source
Hepatotoxicity [8] = tested on: Hepatotoxicity; remark: listed apart in the source
Hepatotoxicity [9] = tested on: Hepatotoxicity; remark: listed apart in the source
Hepatotoxicity [10] = tested on: Hepatotoxicity; remark: listed apart in the source
Hepatotoxicity [11] = tested on: Hepatotoxicity; remark: listed apart in the source
Hepatotoxicity [12] = tested on: Hepatotoxicity; remark: listed apart in the source
Hepatotoxicity [13] = tested on: Hepatotoxicity; remark: listed apart in the source
Hepatotoxicity [14] = tested on: Hepatotoxicity; remark: listed apart in the source

CN(C)CCOC(=O)C(c1ccccc1)C1(O)CCCC1 (configuration not stated) [CYCLOPENTOLATE]
HepSE_bilirubinemia (Hepatotoxicity [1]): 0 | HepSE_cholecystitis (Hepatotoxicity [2]): 0 | HepSE_cholelithiasis (Hepatotoxicity [3]): 0 | HepSE_cirrhosis (Hepatotoxicity [4]): 0 | HepSE_elevated liver function tests (Hepatotoxicity [5]): 0 | HepSE_hepatic failure (Hepatotoxicity [6]): 0 | HepSE_hepatic necrosis (Hepatotoxicity [7]): 0 | HepSE_hepatitis (Hepatotoxicity [8]): 0 | HepSE_hepatomegaly (Hepatotoxicity [9]): 0 | HepSE_jaundice (Hepatotoxicity [10]): 0 | HepSE_liver disease (Hepatotoxicity [11]): 0 | HepSE_liver fatty (Hepatotoxicity [12]): 0 | HepSE_liver function tests abnormal (Hepatotoxicity [13]): 0 | HepSE_Combined Scores (Hepatotoxicity [14]): 0

NC(=O)CC[C@@H]1NC(=O)[C@H](Cc2ccccc2)NC(=O)[C@H](Cc2ccc(O)cc2)NC(=O)CCSSC[C@@H](C(=O)N2CCC[C@H]2C(=O)N[C@H](CCCN=C(N)N)C(=O)NCC(N)=O)NC(=O)[C@H](CC(N)=O)NC1=O [DESMOPRESSIN]
HepSE_bilirubinemia (Hepatotoxicity [1]): 0 | HepSE_cholecystitis (Hepatotoxicity [2]): 0 | HepSE_cholelithiasis (Hepatotoxicity [3]): 0 | HepSE_cirrhosis (Hepatotoxicity [4]): 0 | HepSE_elevated liver function tests (Hepatotoxicity [5]): 0 | HepSE_hepatic failure (Hepatotoxicity [6]): 0 | HepSE_hepatic necrosis (Hepatotoxicity [7]): 0 | HepSE_hepatitis (Hepatotoxicity [8]): 0 | HepSE_hepatomegaly (Hepatotoxicity [9]): 0 | HepSE_jaundice (Hepatotoxicity [10]): 0 | HepSE_liver disease (Hepatotoxicity [11]): 0 | HepSE_liver fatty (Hepatotoxicity [12]): 0 | HepSE_liver function tests abnormal (Hepatotoxicity [13]): 0 | HepSE_Combined Scores (Hepatotoxicity [14]): 0

O=NN(CCCl)C(=O)NC1CCCCC1 [LOMUSTINE]
HepSE_bilirubinemia (Hepatotoxicity [1]): 0 | HepSE_cholecystitis (Hepatotoxicity [2]): 0 | HepSE_cholelithiasis (Hepatotoxicity [3]): 0 | HepSE_cirrhosis (Hepatotoxicity [4]): 0 | HepSE_elevated liver function tests (Hepatotoxicity [5]): 0 | HepSE_hepatic failure (Hepatotoxicity [6]): 0 | HepSE_hepatic necrosis (Hepatotoxicity [7]): 0 | HepSE_hepatitis (Hepatotoxicity [8]): 0 | HepSE_hepatomegaly (Hepatotoxicity [9]): 0 | HepSE_jaundice (Hepatotoxicity [10]): 0 | HepSE_liver disease (Hepatotoxicity [11]): 0 | HepSE_liver fatty (Hepatotoxicity [12]): 0 | HepSE_liver function tests abnormal (Hepatotoxicity [13]): 0 | HepSE_Combined Scores (Hepatotoxicity [14]): 0

Cn1c(=O)c2[nH]cnc2n(C)c1=O.Cn1c(=O)c2[nH]cnc2n(C)c1=O.NCCN [AMINOPHYLLINE]
HepSE_bilirubinemia (Hepatotoxicity [1]): 0 | HepSE_cholecystitis (Hepatotoxicity [2]): 0 | HepSE_cholelithiasis (Hepatotoxicity [3]): 0 | HepSE_cirrhosis (Hepatotoxicity [4]): 0 | HepSE_elevated liver function tests (Hepatotoxicity [5]): 0 | HepSE_hepatic failure (Hepatotoxicity [6]): 0 | HepSE_hepatic necrosis (Hepatotoxicity [7]): 0 | HepSE_hepatitis (Hepatotoxicity [8]): 0 | HepSE_hepatomegaly (Hepatotoxicity [9]): 0 | HepSE_jaundice (Hepatotoxicity [10]): 0 | HepSE_liver disease (Hepatotoxicity [11]): 0 | HepSE_liver fatty (Hepatotoxicity [12]): 0 | HepSE_liver function tests abnormal (Hepatotoxicity [13]): 0 | HepSE_Combined Scores (Hepatotoxicity [14]): 0

Cc1ccccc1N1C(=O)c2cc(S(N)(=O)=O)c(Cl)cc2NC1C (configuration not stated) [METOLAZONE]
HepSE_bilirubinemia (Hepatotoxicity [1]): 0 | HepSE_cholecystitis (Hepatotoxicity [2]): 0 | HepSE_cholelithiasis (Hepatotoxicity [3]): 0 | HepSE_cirrhosis (Hepatotoxicity [4]): 0 | HepSE_elevated liver function tests (Hepatotoxicity [5]): 0 | HepSE_hepatic failure (Hepatotoxicity [6]): 0 | HepSE_hepatic necrosis (Hepatotoxicity [7]): 0 | HepSE_hepatitis (Hepatotoxicity [8]): 1 | HepSE_hepatomegaly (Hepatotoxicity [9]): 0 | HepSE_jaundice (Hepatotoxicity [10]): 1 | HepSE_liver disease (Hepatotoxicity [11]): 0 | HepSE_liver fatty (Hepatotoxicity [12]): 0 | HepSE_liver function tests abnormal (Hepatotoxicity [13]): 0 | HepSE_Combined Scores (Hepatotoxicity [14]): 2

Cc1cccc(C)c1NC(=O)C1CCCCN1C (configuration not stated) [MEPIVACAINE]
HepSE_bilirubinemia (Hepatotoxicity [1]): 0 | HepSE_cholecystitis (Hepatotoxicity [2]): 0 | HepSE_cholelithiasis (Hepatotoxicity [3]): 0 | HepSE_cirrhosis (Hepatotoxicity [4]): 0 | HepSE_elevated liver function tests (Hepatotoxicity [5]): 0 | HepSE_hepatic failure (Hepatotoxicity [6]): 0 | HepSE_hepatic necrosis (Hepatotoxicity [7]): 0 | HepSE_hepatitis (Hepatotoxicity [8]): 0 | HepSE_hepatomegaly (Hepatotoxicity [9]): 0 | HepSE_jaundice (Hepatotoxicity [10]): 0 | HepSE_liver disease (Hepatotoxicity [11]): 0 | HepSE_liver fatty (Hepatotoxicity [12]): 0 | HepSE_liver function tests abnormal (Hepatotoxicity [13]): 0 | HepSE_Combined Scores (Hepatotoxicity [14]): 0

CN1CCc2cccc3c2[C@H]1Cc1ccc(O)c(O)c1-3 [APOMORPHINE]
HepSE_bilirubinemia (Hepatotoxicity [1]): 0 | HepSE_cholecystitis (Hepatotoxicity [2]): 0 | HepSE_cholelithiasis (Hepatotoxicity [3]): 0 | HepSE_cirrhosis (Hepatotoxicity [4]): 0 | HepSE_elevated liver function tests (Hepatotoxicity [5]): 0 | HepSE_hepatic failure (Hepatotoxicity [6]): 0 | HepSE_hepatic necrosis (Hepatotoxicity [7]): 0 | HepSE_hepatitis (Hepatotoxicity [8]): 0 | HepSE_hepatomegaly (Hepatotoxicity [9]): 0 | HepSE_jaundice (Hepatotoxicity [10]): 0 | HepSE_liver disease (Hepatotoxicity [11]): 0 | HepSE_liver fatty (Hepatotoxicity [12]): 0 | HepSE_liver function tests abnormal (Hepatotoxicity [13]): 0 | HepSE_Combined Scores (Hepatotoxicity [14]): 0

CCCCCOC(=O)Nc1nc(=O)n([C@@H]2O[C@H](C)[C@@H](O)[C@H]2O)cc1F [CAPECITABINE]
HepSE_bilirubinemia (Hepatotoxicity [1]): 1 | HepSE_cholecystitis (Hepatotoxicity [2]): 0 | HepSE_cholelithiasis (Hepatotoxicity [3]): 0 | HepSE_cirrhosis (Hepatotoxicity [4]): 0 | HepSE_elevated liver function tests (Hepatotoxicity [5]): 0 | HepSE_hepatic failure (Hepatotoxicity [6]): 1 | HepSE_hepatic necrosis (Hepatotoxicity [7]): 0 | HepSE_hepatitis (Hepatotoxicity [8]): 1 | HepSE_hepatomegaly (Hepatotoxicity [9]): 1 | HepSE_jaundice (Hepatotoxicity [10]): 1 | HepSE_liver disease (Hepatotoxicity [11]): 0 | HepSE_liver fatty (Hepatotoxicity [12]): 1 | HepSE_liver function tests abnormal (Hepatotoxicity [13]): 1 | HepSE_Combined Scores (Hepatotoxicity [14]): 7
